Laboratory results as given in ChEMBL document CHEMBL1649216, “The diarylquinoline R207910 is bactericidal against Mycobacterium leprae in mice at low dose and administered intermittently” (Antimicrob Agents Chemother, 2009).
Calls of active or inactive are those of the source.

Tests used:
Assay type in all cases: functional, organism-based
Mycobacterium leprae [1] = assay: Antimycobacterial activity against Mycobacterium leprae infected in CBA/J mouse assessed as microbial growth inhibition at 120 mg/kg, po administered once monthly during logarithmic multiplication from day 60 to day 150 post infection measured on day 228 post infection; parameters: dose 120 mg/kg
Mycobacterium leprae [2] = assay: Antimycobacterial activity against Mycobacterium leprae infected in CBA/J mouse assessed as microbial growth inhibition at 30 mg/kg, po administered once weekly during logarithmic multiplication from day 60 to day 150 post infection measured on day 302 to 365 post infection; parameters: dose 30 mg/kg
Mycobacterium leprae [3] = assay: Antimycobacterial activity against Mycobacterium leprae infected in CBA/J mouse assessed as microbial growth inhibition at 50 mg/kg, po administered once weekly during logarithmic multiplication from day 60 to day 150 post infection measured on day 302 to 365 post infection; parameters: dose 50 mg/kg
Mycobacterium leprae [4] = assay: Antimycobacterial activity against Mycobacterium leprae infected in CBA/J mouse assessed as microbial growth inhibition at 100 mg/kg, po administered once weekly during logarithmic multiplication from day 60 to day 150 post infection measured on day 302 to 365 post infection; parameters: dose 100 mg/kg
Mycobacterium leprae [5] = assay: Antimycobacterial activity against Mycobacterium leprae infected in CBA/J mouse assessed as microbial growth inhibition at 50 mg/kg, po administered once monthly during logarithmic multiplication from day 60 to day 150 post infection measured on day 302 to 365 post infection; parameters: dose 50 mg/kg
Mycobacterium leprae [6] = assay: Antimycobacterial activity against Mycobacterium leprae infected in CBA/J mouse assessed as microbial growth inhibition at 120 mg/kg, po administered once monthly during logarithmic multiplication from day 60 to day 150 post infection measured on day 302 to 365 post infection; parameters: dose 120 mg/kg
Mycobacterium leprae [7] = assay: Antimycobacterial activity against Mycobacterium leprae infected in CBA/J mouse assessed as microbial growth inhibition at 1 mg/kg, po administered 5 times weekly during logarithmic multiplication from day 60 to day 150 post infection measured on day 152 post infection; parameters: dose 1 mg/kg
Mycobacterium leprae [8] = assay: Antimycobacterial activity against Mycobacterium leprae infected in CBA/J mouse assessed as microbial growth inhibition at 3 mg/kg, po administered 5 times weekly during logarithmic multiplication from day 60 to day 150 post infection measured on day 152 post infection; parameters: dose 3 mg/kg
Mycobacterium leprae [9] = assay: Antimycobacterial activity against Mycobacterium leprae infected in CBA/J mouse assessed as microbial growth inhibition at 6 mg/kg, po administered 5 times weekly during logarithmic multiplication from day 60 to day 150 post infection measured on day 152 post infection; parameters: dose 6 mg/kg
Mycobacterium leprae [10] = assay: Antimycobacterial activity against Mycobacterium leprae infected in CBA/J mouse assessed as microbial growth inhibition at 12.5 mg/kg, po administered 5 times weekly during logarithmic multiplication from day 60 to day 150 post infection measured on day 152 post infection; parameters: dose 12.5 mg/kg
Mycobacterium leprae [11] = assay: Antimycobacterial activity against Mycobacterium leprae infected in CBA/J mouse assessed as microbial growth inhibition at 25 mg/kg, po administered 5 times weekly during logarithmic multiplication from day 60 to day 150 post infection measured on day 152 post infection; parameters: dose 25 mg/kg
Mycobacterium leprae [12] = assay: Antimycobacterial activity against Mycobacterium leprae infected in CBA/J mouse assessed as microbial growth inhibition at 25 mg/kg, po administered once weekly during logarithmic multiplication from day 60 to day 150 post infection measured on day 152 post infection; parameters: dose 25 mg/kg
Mycobacterium leprae [13] = assay: Antimycobacterial activity against Mycobacterium leprae infected in CBA/J mouse assessed as microbial growth inhibition at 30 mg/kg, po administered once weekly during logarithmic multiplication from day 60 to day 150 post infection measured on day 152 post infection; parameters: dose 30 mg/kg
Mycobacterium leprae [14] = assay: Antimycobacterial activity against Mycobacterium leprae infected in CBA/J mouse assessed as microbial growth inhibition at 50 mg/kg, po administered once weekly during logarithmic multiplication from day 60 to day 150 post infection measured on day 152 post infection; parameters: dose 50 mg/kg
Mycobacterium leprae [15] = assay: Antimycobacterial activity against Mycobacterium leprae infected in CBA/J mouse assessed as microbial growth inhibition at 100 mg/kg, po administered once weekly during logarithmic multiplication from day 60 to day 150 post infection measured on day 152 post infection; parameters: dose 100 mg/kg
Mycobacterium leprae [16] = assay: Antimycobacterial activity against Mycobacterium leprae infected in CBA/J mouse assessed as microbial growth inhibition at 25 mg/kg, po administered once monthly during logarithmic multiplication from day 60 to day 150 post infection measured on day 152 post infection; parameters: dose 25 mg/kg
Mycobacterium leprae [17] = assay: Antimycobacterial activity against Mycobacterium leprae infected in CBA/J mouse assessed as microbial growth inhibition at 50 mg/kg, po administered once monthly during logarithmic multiplication from day 60 to day 150 post infection measured on day 152 post infection; parameters: dose 50 mg/kg
Mycobacterium leprae [18] = assay: Antimycobacterial activity against Mycobacterium leprae infected in CBA/J mouse assessed as microbial growth inhibition at 100 mg/kg, po administered once monthly during logarithmic multiplication from day 60 to day 150 post infection measured on day 152 post infection; parameters: dose 100 mg/kg
Mycobacterium leprae [19] = assay: Antimycobacterial activity against Mycobacterium leprae infected in CBA/J mouse assessed as microbial growth inhibition at 120 mg/kg, po administered once monthly during logarithmic multiplication from day 60 to day 150 post infection measured on day 152 post infection; parameters: dose 120 mg/kg
Mycobacterium leprae [20] = assay: Antimycobacterial activity against Mycobacterium leprae infected in CBA/J mouse assessed as microbial growth inhibition at 1 mg/kg, po administered 5 times weekly during logarithmic multiplication from day 60 to day 150 post infection measured on day 228 post infection; parameters: dose 1 mg/kg
Mycobacterium leprae [21] = assay: Antimycobacterial activity against Mycobacterium leprae infected in CBA/J mouse assessed as microbial growth inhibition at 3 mg/kg, po administered 5 times weekly during logarithmic multiplication from day 60 to day 150 post infection measured on day 228 post infection; parameters: dose 3 mg/kg
Mycobacterium leprae [22] = assay: Antimycobacterial activity against Mycobacterium leprae infected in CBA/J mouse assessed as microbial growth inhibition at 6 mg/kg, po administered 5 times weekly during logarithmic multiplication from day 60 to day 150 post infection measured on day 228 post infection; parameters: dose 6 mg/kg
Mycobacterium leprae [23] = assay: Antimycobacterial activity against Mycobacterium leprae infected in CBA/J mouse assessed as microbial growth inhibition at 12.5 mg/kg, po administered 5 times weekly during logarithmic multiplication from day 60 to day 150 post infection measured on day 228 post infection; parameters: dose 12.5 mg/kg
Mycobacterium leprae [24] = assay: Antimycobacterial activity against Mycobacterium leprae infected in CBA/J mouse assessed as microbial growth inhibition at 25 mg/kg, po administered 5 times weekly during logarithmic multiplication from day 60 to day 150 post infection measured on day 228 post infection; parameters: dose 25 mg/kg
Mycobacterium leprae [25] = assay: Antimycobacterial activity against Mycobacterium leprae infected in CBA/J mouse assessed as microbial growth inhibition at 25 mg/kg, po administered once weekly during logarithmic multiplication from day 60 to day 150 post infection measured on day 228 post infection; parameters: dose 25 mg/kg
Mycobacterium leprae [26] = assay: Antimycobacterial activity against Mycobacterium leprae infected in CBA/J mouse assessed as microbial growth inhibition at 30 mg/kg, po administered once weekly during logarithmic multiplication from day 60 to day 150 post infection measured on day 228 post infection; parameters: dose 30 mg/kg
Mycobacterium leprae [27] = assay: Antimycobacterial activity against Mycobacterium leprae infected in CBA/J mouse assessed as microbial growth inhibition at 50 mg/kg, po administered once weekly during logarithmic multiplication from day 60 to day 150 post infection measured on day 228 post infection; parameters: dose 50 mg/kg
Mycobacterium leprae [28] = assay: Antimycobacterial activity against Mycobacterium leprae infected in CBA/J mouse assessed as microbial growth inhibition at 100 mg/kg, po administered once weekly during logarithmic multiplication from day 60 to day 150 post infection measured on day 228 post infection; parameters: dose 100 mg/kg
Mycobacterium leprae [29] = assay: Antimycobacterial activity against Mycobacterium leprae infected in CBA/J mouse assessed as microbial growth inhibition at 25 mg/kg, po administered once monthly during logarithmic multiplication from day 60 to day 150 post infection measured on day 228 post infection; parameters: dose 25 mg/kg
Mycobacterium leprae [30] = assay: Antimycobacterial activity against Mycobacterium leprae infected in CBA/J mouse assessed as microbial growth inhibition at 50 mg/kg, po administered once monthly during logarithmic multiplication from day 60 to day 150 post infection measured on day 228 post infection; parameters: dose 50 mg/kg
Mycobacterium leprae [31] = assay: Antimycobacterial activity against Mycobacterium leprae infected in CBA/J mouse assessed as microbial growth inhibition at 100 mg/kg, po administered once monthly during logarithmic multiplication from day 60 to day 150 post infection measured on day 228 post infection; parameters: dose 100 mg/kg

Measured: growth inhibition (GI)

COc1nc2ccc(Br)cc2cc1[C@@H](c1ccccc1)[C@@](O)(CCN(C)C)c1cccc2ccccc12
active: all assays above
